According to patent publication US10058587B2, “Peptide composition for cancer treatment by inhibiting TRPV6 calcium channel activity” (priority 2008, dated 2018):
Where no end group is shown, it is not given here.

Legend:
[1] = system: T47D breast cancer xenografts; experiment: T-47D breast cancer xenograft, SorC13 with Paclitaxel (Example 27); format: in vivo, NOD/SCID mice
Procedure: Tumor volumes (V) were calculated by caliper measurement using standard measurements of the width (W), length (L) and thickness (T) of tumors. Animals were randomized into treatment groups so that the median tumor volumes of each group were similar at the start of dosing. Percentage ΔT/ΔC values, as a measure of efficacy, were determined where ΔC refers to change in volume of control or untreated tumor, and ΔT refers to change in volume of treated tumor.
Animals were intraperitoneally (i.p.) injected with the vehicular control, or the low, medium or high doses of CAT or CAT and SorC13. Mice received low medium or high doses of CAT or CAT and SorC13 by i.p. injection every day for 12 days or CAT injections as set out in Table 10. Paclitaxel was injected first, followed by carboplatin 30 minutes later and then SorC13. The tumor volume and body weights were measured every day. As well, general health of the animals was monitored every day.
The human […] breast cancer cell line T-47D (ATCC #HTB-133), was cultured in growth media prepared with ATCC complete growth medium. The base medium for the T-47D cell line is ATCC-formulated RPMI-1640 Medium. The complete growth medium is supplemented with 0.2 Units/ml bovine insulin and fetal bovine serum to a final concentration of 10% (v/v). Cells were cultured at 37° C. in an atmosphere of 95% air and 5% carbon dioxide with sub-culturing done according to ATCC guidelines.
The cell preparation, formulation, implantation, measurement and treatment procedures were otherwise as described in Example 26 and Table 10 but with Paclitaxel at low (6 mg/kg), medium (10 mg/kg) and high (16 mg/kg) doses.

[2] = system: MDA-MB-468 (MB 468) breast cancer cell line; experiment: Induction of apoptosis (APO-ONE caspase 3/7) and cell viability (CellTiter Blue); format: cell-based, human; parameters: key: cell viability decreased (+); or not (−)
Procedure: (§1) MCF-7, MDA-MB-231, MDA-MB-415, MDA-MB-468 were grown in DMEM modified with 10% (v/v) fetal bovine serum, 2 mM L-glutamine and 50 ug/mL each of penicillin and streptomycin.
(§2) The levels of apoptotic induction and cell viability were determined by multiplexing the measurements for single samples. CellTiter Blue and APO-ONE assay systems from Promega allows the determination of cell viability correlated to cell number, and induction of apoptosis. This protocol uses a fluorgenic peptide that contains a peptide recognition-sequence for caspase 3 and caspase 7, […] proteolytic enzymes of the apoptosis cascade. The CellTiter Blue reagent was added to wells in a 96-well plate containing cells under test, immediately after addition of peptide solution or vehicle. About 5000 cells were plated into the wells the day before. At the chosen time (Day 1, Day 2 etc.) the fluorescence was measured at 590 nm (emission) after excitation at 560 nm. The caspase 3/7 activity was measured (485 nm Ex/527 nm Em) in the same wells after adding 120 uL of the Apo-ONE reagent, freeze fracturing at −80° C. for 1 hr, and incubating for 1 hr at room temperature.
(§3) For this work, the concentrations of SorC13 and SorC27 used were 0 uM, 1 uM, 10 uM and 100 uM. The experiments extended over a 5 to 7 day period. All measurements were done in quadruplicate with both a blank (no cells) and control (vehicle, no peptide) used to correct the test measurements. The time-response data, and the dose-response data were plotted as means±standard error of the mean. Any statistical comparisons were done with the Student's t-test or by ANOVA analysis over the dose course. The level of statistical significance was considered to be the 95% confidence interval (i.e., p≤0.05).

[3] = system: MCF 7 breast cancer cell line; experiment: as above; format: cell-based, human
Procedure: as §1, §2, §3
To benchmark the effect of both C-type peptides to the gold-standard treatment presently used against breast cancer (Paclitaxel), SorC13, SorC27 and Paclitaxel (10 uM) were compared. Both the APO-ONE assay (Promega) and the CellTiter Blue were used on the panel of breast cancer cell lines. The data were compared directly in terms of mean response and tested for significant difference.

[4] = Storage stability of solid and aqueous solution; format: physicochemical
Procedure: Additionally, the peptides have greater shelf-life stability and solution stability due to the presence of fewer sensitive disulfide bonds (soricidin has 3 disulfide bonds). The peptides of the invention optionally have no disulfide bonds. An absence of disulfide bonds provides a very long shelflife during storage under minimal refrigeration or at room temperature as a solid. Additionally when the peptides of the invention with no disulfide bonds are dissolved in water, cleavage of disulfide bonds cannot occur. […] The formation of inter-peptide S—S bonds also results in precipitation of soricidin. The peptides of the invention, such as SorC13 and SorC27, are typically stable in aqueous solution at 8° C. for at least 3 weeks with no change in purity as measured by HPLC.
“Very stable” in the above table means that there was no observable degradation of the solid peptides over 6 months. As a solution in sterile water, the peptides are typically stable for at least 3 weeks at 8° C. and at −20° C., are expected to be stable more than 1 year.

[5] = Physiological effects after i.v. injection into CD1 mice (blood pressure, heart rate, neurological/behavioral); format: in vivo
Procedure: (§4) After in vivo i.v. injection into CD1 mice, SorC13 caused a small spike (approximately 25%) in blood pressure in the first 15 min which disappeared by 1 hour.

[6] = Clearance route in iv mice; details: i.v.
[7] = Single dose acute intravenous bolus toxicity study with 5-day observation; format: in vivo, CD-1 mice
Procedure: A single dose acute intravenous bolus injection toxicity study followed by a 5-day observation period in CD-1 mice was performed as described below. Three doses of each of SorC13 and SorC27 were used (10, 100 and 500 mg/Kg). Daily cage-side exams for 5 days with hourly exams for the first 4 hrs post injection. As part of the analysis the following assessments were made: body weights prior to dosing and at termination; all animals were necropsied (including preparation of bone marrow smears); organ weights were taken of all animals.
as §4

Solubility (aqueous) = details: aqueous
[8] = single i.v. 10, 100 and 500 mg/kg

Q: With KEFLHPSKVDLPR [SorC13, KEFLHPSKVDLPR] as the sequence, how does the “% ΔT/ΔC (tumor volume normalized to control)” value ([1]; Day 6, SorC13 300 mg/kg) read?
A: Its value is 66.0%.

Q: What about the “% ΔT/ΔC (tumor volume normalized to control)” value ([1]; Day 12, SorC13 300 mg/kg) of the same sequence?
A: The value was 1.0%.

Q: And the “% ΔT/ΔC (tumor volume normalized to control)” value ([1]; Day 18 (rest period), SorC13 300 mg/kg)?
A: Its value is 54.5%.

Q: And the “% ΔT/ΔC (tumor volume normalized to control)” value ([1]; Day 24 (rest period), SorC13 300 mg/kg)?
A: Its value is 48.7%.

Q: What about the Mean tumour volume ([1]; after 12-day rest post-treatment, SorC13 300 mg/kg) of the same sequence?
A: Its Mean tumour volume is 55.76 mm^3.

Q: What about the Mean tumor volume ([1]; day 12 of treatment, SorC13 300 mg/kg i.p. daily) of the same sequence?
A: Its Mean tumor volume is 43.61 mm^3.

Q: And the “Decline in cell viability” value ([2]; SorC13 1 uM)?
A: The value was “+”.

Q: And the “Decline in cell viability” value ([2]; SorC13 10 uM)?
A: The value was “+”.

Q: And the “Decline in cell viability” value ([2]; SorC13 100 uM)?
A: The value was “+”.

Q: What about the “Apoptosis Index (1 = no effect)” value ([3]; SorC13 1 uM) of the same sequence?
A: The value was 1.2.

Q: What about the “Apoptosis Index (1 = no effect)” value ([3]; SorC13 10 uM) of the same sequence?
A: Its value is 1.1.

Q: What about the “Apoptosis Index (1 = no effect)” value ([3]; SorC13 100 uM) of the same sequence?
A: Its value is 2.4.

Q: For EGKLSSNDTEGGLCKEFLHPSKVDLPR [SorC27], which “Stability in aqueous solution @ −20° C.” value [4] is on record?
A: Its value is “Very stable”.

Q: What about the “Stability solid @ Room Temp.” value [4] of the same sequence?
A: Its value is “Very stable”.

Q: What about the “Stability solid @ −20° C.” value [4] of the same sequence?
A: Its value is “Very stable”.

Q: What about the “Physiol. effects in vivo (mice) @ 5 mg/kg” value ([5]; 5 mg/kg) of the same sequence?
A: Its value is “None observed over 72 hr”.

Q: What about the “change in blood pressure or heart rate” value ([5]; i.v., 1 hour measurement period) of the same sequence?
A: Its value is “no change in blood pressure or heart rate”.

Q: And the neurological/behavioral changes ([5]; i.v., over 72 hours)?
A: The neurological/behavioral changes was “no also neurological/behavioral changes”.

Q: What about the “Clearance route in iv mice @ 5 mg/kg” value [6] of the same sequence?
A: The value was “Rapid via kidney”.

Q: What about the “Maximum Tolerated Dose in CD-1 mice by single i.v. dose” value ([7]; 10, 100 and 500 mg/kg doses) of the same sequence?
A: The value was “No toxic effects”.

Q: And the “adverse events over 5-day post-injection observation period” value [7, 8]?
A: Its value is “no adverse events”.

Q: What about the “necropsy changes in major organ systems” value [7, 8] of the same sequence?
A: Its value is “no significant changes in all major organ systems”.

Q: What about the solubility (Solubility (aqueous)) of the same sequence?
A: The solubility was over 200 mg/mL.

Q: And the “Apoptosis Index (1 = no effect)” value ([3]; Day 2, SorC27 10 μM)?
A: The value was 1.0.

Q: And the “Apoptosis Index (1 = no effect)” value ([3]; Day 2, SorC27 100 μM)?
A: The value was 2.8.

Q: And the “Apoptosis Index (1 = no effect)” value ([3]; Day 3, SorC27 10 μM)?
A: Its value is 2.9.

Q: And the “Apoptosis Index (1 = no effect)” value ([3]; Day 3, SorC27 100 μM)?
A: The value was 4.6.

Q: And the “induction of apoptosis compared with Paclitaxel (10 uM)” value ([3]; SorC27 10 uM)?
A: The value was “more effective at inducing a faster and more intense apoptotic cascade than Paclitaxel”.
